Results taken from US20110034466A1, “NOVEL FIVE-MEMBERED RING COMPOUND” (priority 2008, published 2011).

Assays:
rat lung membrane SMBS = assay: Receptor-binding assessment test using rat lung membranes ([125I]-iodocyanopindolol ligand binding assay); details: 1 μM test compound; ratio of inhibiting specific binding of [125I]-iodocyanopindolol to rat lung membrane SMBS
Experimental: Receptor-Binding Assessment Test of Compounds Using Rat Lung Membranes
The assessment test was carried out according to the method of Sugasawa, T. et al., J. Biol. Chem., 272, 21244-21252 (1997).
Preparation of Rat Lung Membranes
Lung taken out from SD male rat (7-week old under test, Charles River Laboratories Japan, Inc.) was removed trachea and blood vessels to shred and washed with iced tris-saline buffer (10 mM tris hydrochloric acid-154 mM sodium chloride, pH7.4). The resultant was homogenized by Hiscotron with ice-cold tris-saline buffer containing a homogenization buffer (1 mM ethylenediaminetetraacetic acid (EDTA), 1 mM 4-(2-aminoethyl)benzenesulfonyl fluoride (AEBSF), 5 μg/ml aprotinin, 5 μg/ml leupeptine) (maximum rate: 1 minute). The supernatant after low-speed centrifugation (1500×g, 20 minutes, 4° C.) was ultracentrifuged (100000×g, 20 minutes, 4° C.), and the pellet was suspended in tris-saline buffer to store at −80° C. The protein concentrations were determined by Bio-Rad Protein Assay Kit using bovine serum albumin (BSA) as a standard.
To each well in protein-nonabsorptive round-bottom 96-well assay plate (commercially available from Iwaki Glass Co., Ltd.) were added tris-saline buffer (200 μl) containing 1 nM [^125I]-iodocyanopindolol (commercially available from Amersham plc), 10 μM serotonine, 20 μm dl-propranolol, 10 μM phentolamine, 1.1 mM ascorbic acid and 100 μg lung membrane, and the mixture was pipetted to combine and then incubated at 37° C. for 30 minutes. The test compounds were dissolved in 100% dimethyl sulfoxide solution, and thereto was added 2 μl (final DMSO concentration: 1%). In order to calculate nonspecific binding amounts, to the mixture was added L-threo-3-(3,4-dihydroxyphenyl)-N-[3-(4-fluorophenyl)propyl]serine pyrrolidine amide at 100 μM of the final concentration as an alternative to the test compounds. During this time, 100 μl of 0.3% polyethyleneimine (PEI)/tris-saline buffer was added to MultiScreen plate (96-well B glass fiber, Millipore Cat. No. MAFB NOB10), and incubated for over 30 minutes. The resultant was filtered with aspiration (aspiration by the addition of 200 μl iced tris-saline buffer) to wash, and the reaction solutions on 96-well assay plate were filtered with aspiration to wash four times on MultiScreen plate. B glass fiber filter paper at the bottom of MultiScreen plate was punched out, and γ-ray doses of [^125I]-iodocyanopindolol trapped on the filter paper were determined as binding amounts. The binding amounts in the presence of DMSO (final concentration: 1%) were total binding amounts, and the binding amounts in the presence of 100 μM L-threo-3-(3,4-dihydroxyphenyl)-N-[3-(4-fluorophenyl)propyl]serine pyrrolidine amide were nonspecific binding amounts. The values subtracted the nonspecific binding amounts from the total binding amounts were the specific binding amounts. The binding activity of a compound was calculated according to the following formula, which was shown in the ratio of inhibiting the specific binding of [^125I]-iodocyanopindolol to rat lung membrane SMBS by the test compound.

[1] = test system: Corticosterone generation; assay: Assessment test of steroid hormone synthesis inhibition (Corticosterone generation in rat adrenal gland cells); type: cell-based; details: 10 μM test article, rat adrenal cells with cAMP, 2 hours, read-out: Steroid Synthesis Inhibition Rate (%) (10 μM)
Description: Assessment Test of Steroid Hormone Synthesis Inhibition
• Cell Strainer (BD Falcon®) • Cell Titer-Glo® (Promega) • Collagenase from Clostridium histolyticum (Sigma-Aldrich) • Corticosterone EIA kit (Cayman) • Dimethylsulfoxide (referred to as DMSO hereinafter) (nacalai tesque) • D-MEM (GIBCO) • DNase I (Invitrogen) • Fetal Bovine Serums (referred to as FBS hereinafter) (Bioflud) • Multiple well plates for adhesive cell culture, 96 wells (IWAKI) • N^6,2′-O-Dibutyryladenosine 3′,5′-cyclic monophosphate sodium salt (referred to as cAMP hereinafter) (Sigma) • Penicillin Streptomycin Mixed Solution (nacalai tesque)
Control examples 1 to 4: Control example 1 was Example 350 of Patent Document 2. Control examples 2 to 4 were synthesized according to Patent Document 2.
Adrenal glands were taken out from rats, and removed excess connective tissues, adiposes and membranes in D-MEM. The adrenal glands were transferred to polytubes, and quickly segmentalized with scissors. Thereto was added D-MEM containing 1 mg/mL collagenase and 0.25 μL DNase 1, and then the mixture was shaken at 37° C. for 10 minutes in 80 times/minute. Then, the mixture was pipetted by 1 mL truncated pipette tip, and shaken again under the same condition. After 10 minutes, the mixture was pipetted again by 1 mL pipette tip, and the cell suspension was filtered through metal mesh. The filtrate was centrifuged at 4° C. for 5 minutes in 500 g. The supernatant was removed, and thereto was added a mixed solution of 0.16 M NH4Cl and 0.17 M Tris-HCl in 3 mL. The mixture was let stand on ice for 5 minutes, and then centrifuged under the same condition. Then, the supernatant was removed and then thereto was added D-MEM. The cell suspension was prepared and centrifuged under the same condition. Again, the supernatant was removed and then thereto was added D-MEM to give a cell suspension. The cell suspension was filtered by Cell Strainer (BD Falcon®). The filtrate was centrifuged under the same condition. After the completion of the centrifugation, the supernatant was removed, and thereto was added D-MEM containing 1% Penicillin Streptomycin Mixed Solution and 10% FBS. The mixture was seeded in Multiple well plate for adhesive cell culture, 96 wells (IWAKI) in 10000 cells/well, and incubated at 37° C. overnight in CO2 incubator.
Test article concentrations were prepared in DMSO to 2000 μM, and D-MEM containing 20 μM test article in D-MEM was prepared.
Cell-seeded plate was incubated overnight, and then the medium was removed and thereto was added D-MEM containing 20 μM test article in 50 μL/well. Then, to the mixture was promptly added D-MEM containing 20 μM cAMP in 50 μL/well so that the final concentration of the test article was 10 μM. After the addition of 2 types of D-MEM, the mixture was incubated at 37° C. for 2 hours in CO2 incubator. After 2 hours, the supernatant (50 μL) of the medium was collected. For cells, the cell toxicity of the test article was assessed according to a conventional method using Cell Titer-Glo® (Promega). For the collected supernatant, the Corticosterone concentration in the supernatant was determined according to a conventional method using Corticosterone EIA kit (Cayman).
The inhibition rate of 10 μM test article to Corticosterone generation was calculated according to the following formula confirming that the cell toxicity by the test article was not recognized.

## CNC(=O)NCCn1c(-c2ccc(CN3CCOCC3)cc2C)cs/c1=N\c1ccc(F)c(C)c1 [Example 18, N-{2-[(2Z)-2-[(4-Fluoro-3-methylphenyl)imino]-4-[2-methyl-4-(morpholin-4-ylmethyl)phenyl]-1,3-thiazol-3(2H)-yl]ethyl}-N′-methylurea]
Rat lung membrane SMBS
  Binding Activity (%) (1 μM): 88%
[1]
  inhibition at 10 µM: 28%

## CNC(=O)NCCn1c(-c2ccc(CN3CCOCC3)c(OC)c2)cs/c1=N\c1ccc(F)c(C)c1 [Example 21, N-{2-[(2Z)-2-[(4-Fluoro-3-methylphenyl)imino]-4-[3-methoxy-4-(morpholin-4-ylmethyl)phenyl]-1,3-thiazol-3(2H)-yl]ethyl}-N′-methylurea]
Rat lung membrane SMBS
  Binding Activity (%) (1 μM): 82%
[1]
  inhibition at 10 µM: 8%

## CNC(=O)NCCn1c(-c2ccc(CN3CCOCC3)cc2C)cs/c1=N\c1ccc(C)c(F)c1 [Example 22]
other
  melting point: 171 to 174 °C

## CNC(=O)NCCn1c(-c2ccc(CN3CCOCC3)cc2C)cs/c1=N\c1cccc(F)c1 [Example 23]
other
  melting point: 119 to 121 °C

## CNC(=O)NCCn1c(-c2ccc(CN3CCOCC3)cc2C)cs/c1=N\c1ccc(F)cc1C [Example 24]
other
  melting point: 122 to 125 °C

## CNC(=O)NCCn1c(-c2ccc(CN3CCOCC3)cc2C)cs/c1=N\c1ccc(F)cc1F [Example 25]
other
  melting point: 154 to 160 °C

## CNC(=O)NCCn1c(-c2ccc(CN3CCOCC3)cc2C)cs/c1=N\c1cccc(F)c1F [Example 26]
other
  melting point: 132 to 135 °C

## CNC(=O)NCCn1c(-c2ccc(CN3CCOCC3)c(C)c2)cs/c1=N\c1cccc(F)c1 [Example 27]
other
  melting point: 151 to 152 °C

## CNC(=O)NCCn1c(-c2ccc(CN3CCOCC3)cc2OC)cs/c1=N\c1cccc(F)c1 [Example 28]
other
  melting point: 163 to 166 °C

## CNC(=O)NCCn1c(-c2ccc(CN3CCOCC3)cc2OC)cs/c1=N\c1ccc(C)c(F)c1 [Example 29]
other
  melting point: 144 to 150 °C

## CNC(=O)NCCn1c(-c2ccc(CN3CCOCC3)cc2OC)cs/c1=N\c1cccc(F)c1F [Example 30]
other
  melting point: 161 to 165 °C

## CNC(=O)NCCn1c(-c2ccc(CN3CCOCC3)c(OC)c2)cs/c1=N\c1cccc(F)c1 [Example 31]
other
  melting point: 170 to 174 °C

## CNC(=O)NCCn1c(-c2ccc(CN3CCOCC3)c(OC)c2)cs/c1=N\c1cccc(F)c1F [Example 32]
other
  melting point: 150 to 153 °C

## CNC(=O)NCCn1c(-c2ccc(CN3CCOCC3)c(OC)c2)cs/c1=N\c1ccc(F)cc1F [Example 33]
other
  melting point: 164 to 169 °C

## CNC(=O)NCCn1c(-c2ccc(CCN3CCOCC3)cc2)cs/c1=N\c1cccc(F)c1 [Example 45]
other
  melting point: 154 to 160 °C

## CNC(=O)NCCn1c(-c2ccc(CCN3CCOCC3)cc2)cs/c1=N\c1cccc(F)c1F [Example 46]
other
  melting point: 155 to 164 °C

## CNC(=O)NCCn1c(-c2ccc(CCN3CCOCC3)cc2)cs/c1=N\c1ccc(F)cc1F [Example 47]
other
  melting point: 166 to 172 °C

## CCNC(=O)NCCn1c(-c2ccc(C(=O)N3CCOCC3)cc2)cs/c1=N\c1ccc(F)c(C)c1 [Example 53]
other
  melting point: 183 to 186 °C

## CCNC(=O)NCCn1c(-c2ccc(C(=O)N3CCOCC3)cc2)cs/c1=N\c1ccc(F)cc1F [Example 54]
other
  melting point: 179 to 180 °C

## CCNC(=O)NCCn1c(-c2ccc(C(=O)N3CCOCC3)cc2)cs/c1=N\c1ccc(C)c(F)c1 [Example 55]
other
  melting point: 175 to 178 °C

## CCNC(=O)NCCn1c(-c2ccc(C(=O)N3CCOCC3)cc2)cs/c1=N\c1cccc(Cl)c1 [Example 56]
other
  melting point: 182 to 186 °C

## CCNC(=O)NCCn1c(-c2ccc(C(=O)N3CCOCC3)cc2)cs/c1=N\c1cccc(F)c1 [Example 57]
other
  melting point: 172 to 177 °C

## CCNC(=O)NCCn1c(-c2ccc(C(=O)N3CCOCC3)cc2)cs/c1=N\c1ccc(F)c(C)c1 [Example 58]
other
  melting point: 196 to 203 °C

## CCNC(=O)NCCn1c(-c2ccc(C(=O)N3CCOCC3)cc2)cs/c1=N\c1cccc(Cl)c1 [Example 59]
Rat lung membrane SMBS
  Binding Activity (%) (1 μM): 66%
[1]
  inhibition at 10 µM: 7%
other
  melting point: 191 to 198 °C

## CCNC(=O)c1ccc(-c2cs/c(=N\c3cccc(F)c3)n2CCNC(=O)NC)cc1 [Example 60]
other
  melting point: 170 to 176 °C

## CCNC(=O)c1ccc(-c2cs/c(=N\c3ccc(F)cc3)n2CCNC(=O)NC)cc1 [Example 61]
Rat lung membrane SMBS
  Binding Activity (%) (1 μM): 62%
[1]
  inhibition at 10 µM: 6%
other
  melting point: 172 to 178 °C

## CCNC(=O)c1ccc(-c2cs/c(=N\c3ccc(F)c(F)c3)n2CCNC(=O)NC)cc1 [Example 62]
Rat lung membrane SMBS
  Binding Activity (%) (1 μM): 65%
[1]
  inhibition at 10 µM: 2%
other
  melting point: 180 to 188 °C

## CCNC(=O)c1ccc(-c2cs/c(=N\c3cccc(Cl)c3)n2CCNC(=O)NC)cc1 [Example 63]
other
  melting point: 185 to 192 °C

## CNC(=O)NCCn1c(-c2ccc(C(=O)NC3CC3)cc2)cs/c1=N\c1cccc(F)c1 [Example 64]
other
  melting point: 179 to 185 °C
